From patent US9169254B2, “Spiroimidazolone derivative” (Chugai Seiyaku Kabushiki Kaisha, priority 2009, dated 2015)

Biological target: T1, human PTH1 receptor (Homo sapiens, UniProt Q03431)
T1 sequence (Q03431 27-593): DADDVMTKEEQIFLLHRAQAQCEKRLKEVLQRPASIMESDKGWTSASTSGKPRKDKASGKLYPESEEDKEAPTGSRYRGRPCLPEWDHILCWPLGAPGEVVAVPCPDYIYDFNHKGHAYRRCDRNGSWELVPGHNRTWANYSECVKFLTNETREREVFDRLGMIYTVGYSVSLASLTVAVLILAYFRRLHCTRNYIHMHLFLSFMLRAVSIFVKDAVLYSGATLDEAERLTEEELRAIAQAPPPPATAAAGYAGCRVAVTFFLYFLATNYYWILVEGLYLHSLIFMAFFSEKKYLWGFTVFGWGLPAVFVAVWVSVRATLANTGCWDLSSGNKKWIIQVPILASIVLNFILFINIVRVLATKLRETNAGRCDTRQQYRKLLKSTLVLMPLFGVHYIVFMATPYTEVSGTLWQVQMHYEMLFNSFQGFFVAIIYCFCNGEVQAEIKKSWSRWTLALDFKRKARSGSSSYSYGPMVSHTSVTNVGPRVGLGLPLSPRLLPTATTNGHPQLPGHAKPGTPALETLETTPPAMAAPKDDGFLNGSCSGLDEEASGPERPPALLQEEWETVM
Experiment: In vitro cAMP signal activity in HKRK-B7 cells (LLC-PK1 cells overexpressing the human PTH1 receptor)
Type: cell-based
Conditions: HKRK-B7 cells; compound at 1×10^−3 M; cAMP produced as percentage of that produced by hPTH(1-34) at 100 nM

cAMP production activity (%) | Structure (SMILES)
55 | CN1CCCc2c(CCS(=O)(=O)N3CCC4(CC3)N=C(C3CCCCC3)NC4=O)cccc21 [Compound 747, 2-cyclohexyl-8-[2-(1-methyl-1,2,3,4-tetrahydro-quinolin-5-yl)-ethanesulfonyl]-1,3,8-triaza-spiro[4.5]dec-1-en-4-one]
61 | O=C1NC(C2CCCCC2)=NC12CCN(S(=O)(=O)CCc1cccc3c1ccn3CCC(O)CO)CC2 (stereo not drawn) [Compound 748, 2-cyclohexyl-8-{2-[1-(3,4-dihydroxy-butyl)-1H-indol-4-yl]-ethanesulfonyl}-1,3,8-triaza-spiro[4.5]dec-1-en-4-one]
77 | Cc1cc(CCS(=O)(=O)N2CCC3(CC2)N=C(C2CCC(C)CC2)NC3=O)cc(C)c1N1C(=O)CNC1=O (stereo not drawn) [Compound 749, 3-(2,6-dimethyl-4-{2-[2-(4-methyl-cyclohexyl)-4-oxo-1,3,8-triaza-spiro[4.5]dec-1-ene-8-sulfonyl]-ethyl}-phenyl)-imidazolidine-2,4-dione]
87 | Cc1cc(CC(N)=O)ccc1CCS(=O)(=O)N1CCC2(CC1)N=C(C1CCC(C)CC1)NC2=O (stereo not drawn) [Compound 750, 2-(3-Methyl-4-{2-[2-(4-methyl-cyclohexyl)-4-oxo-1,3,8-triaza-spiro[4.5]dec-1-ene-8-sulfonyl]-ethyl}-phenyl)-acetamide]
83 | CCOc1cc(NC(C)=O)ccc1CCS(=O)(=O)N1CCC2(CC1)N=C(C1CCC(C)CC1)NC2=O (stereo not drawn) [Compound 751, N-(3-ethoxy-4-{2-[2-(4-methyl-cyclohexyl)-4-oxo-1,3,8-triaza-spiro[4.5]dec-1-ene-8-sulfonyl]-ethyl}-phenyl)-acetamide]
79 | CCc1cc(NC(C)=O)ccc1CCS(=O)(=O)N1CCC2(CC1)N=C(C1CCC(C)CC1)NC2=O (stereo not drawn) [Compound 752, N-(3-ethyl-4-{2-[2-(4-methyl-cyclohexyl)-4-oxo-1,3,8-triaza-spiro[4.5]dec-1-ene-8-sulfonyl]-ethyl}-phenyl)-acetamide]
104 | CCOCc1cc(NC(C)=O)ccc1CCS(=O)(=O)N1CCC2(CC1)N=C(C1CCC(C)CC1)NC2=O (stereo not drawn) [Compound 753, N-(3-ethoxymethyl-4-{2-[2-(4-methyl-cyclohexyl)-4-oxo-1,3,8-triaza-spiro[4.5]dec-1-ene-8-sulfonyl]-ethyl}-phenyl)-acetamide]
89 | COCc1cc(NC(C)=O)ccc1CCS(=O)(=O)N1CCC2(CC1)N=C(C1CCC(C)CC1)NC2=O (stereo not drawn) [Compound 754, N-(3-methoxymethyl-4-{2-[2-(4-methyl-cyclohexyl)-4-oxo-1,3,8-triaza-spiro[4.5]dec-1-ene-8-sulfonyl]-ethyl}-phenyl)-acetamide]
74 | COCCN(C(C)=O)c1ccc(CCS(=O)(=O)N2CCC3(CC2)N=C(C2CCC(CCC(F)(F)F)CC2)NC3=O)c(C)c1 (stereo not drawn) [Compound 755, N-(2-methoxy-ethyl)-N-[3-methyl-4-(2-{4-oxo-2-[4-(3,3,3-trifluoro-propyl)-cyclohexyl]-1,3,8-triaza-spiro[4.5]dec-1-ene-8-sulfonyl}-ethyl)-phenyl]-acetamide]
79 | COCCN(C(C)=O)c1cc(C)c(CCS(=O)(=O)N2CCC3(CC2)N=C(C2CCC(CCC(F)(F)F)CC2)NC3=O)c(C)c1 (stereo not drawn) [Compound 756, N-[3,5-dimethyl-4-(2-{4-oxo-2-[4-(3,3,3-trifluoro-propyl)-cyclohexyl]-1,3,8-triaza-spiro[4.5]dec-1-ene-8-sulfonyl}-ethyl)-phenyl]-N-(2-methoxy-ethyl)-acetamide]
79 | CC(=O)N(CCOCCF)c1ccc(CCS(=O)(=O)N2CCC3(CC2)N=C(C2CCC(CCC(F)(F)F)CC2)NC3=O)c(C)c1 (stereo not drawn) [Compound 757, N-[2-(2-fluoro-ethoxy)-ethyl]-N-[3-methyl-4-(2-{4-oxo-2-[4-(3,3,3-trifluoro-propyl)-cyclohexyl]-1,3,8-triaza-spiro[4.5]dec-1-ene-8-sulfonyl}-ethyl)-phenyl]-acetamide]
98 | CC(=O)N(CCOCCO)c1ccc(CCS(=O)(=O)N2CCC3(CC2)N=C(C2CCC(CCC(F)(F)F)CC2)NC3=O)c(C)c1 (stereo not drawn) [Compound 758, N-[2-(2-hydroxy-ethoxy)-ethyl]-N-[3-methyl-4-(2-{4-oxo-2-[4-(3,3,3-trifluoro-propyl)-cyclohexyl]-1,3,8-triaza-spiro[4.5]dec-1-ene-8-sulfonyl}-ethyl)-phenyl]-acetamide]
79 | CC(=O)N(C)c1cc(C)c(CCS(=O)(=O)N2CCC3(CC2)N=C(C2CCC(CCC(F)(F)F)CC2)NC3=O)c(C)c1 (stereo not drawn) [Compound 759, N-[3,5-dimethyl-4-(2-{4-oxo-2-[4-(3,3,3-trifluoro-propyl)-cyclohexyl]-1,3,8-triaza-spiro[4.5]dec-1-ene-8-sulfonyl}-ethyl)-phenyl]-N-methyl-acetamide]
93 | Cc1cc(N2C(=O)CN(C)C2=O)cc(C)c1CCS(=O)(=O)N1CCC2(CC1)N=C(C1CCC(CCC(F)(F)F)CC1)NC2=O (stereo not drawn) [Compound 760, 3-[3,5-dimethyl-4-(2-{4-oxo-2-[4-(3,3,3-trifluoro-propyl)-cyclohexyl]-1,3,8-triaza-spiro[4.5]dec-1-ene-8-sulfonyl}-ethyl)-phenyl]-1-methyl-imidazolidine-2,4-dione]
104 | Cc1cc(C(=O)N2CCN(CCF)CC2)cc(C)c1CCS(=O)(=O)N1CCC2(CC1)N=C(C1CCC(CCC(F)(F)F)CC1)NC2=O (stereo not drawn) [Compound 761, 8-(2-{4-[4-(2-fluoro-ethyl)-piperazine-1-carbonyl]-2,6-dimethyl-phenyl}-ethanesulfonyl)-2-[4-(3,3,3-trifluoro-propyl)-cyclohexyl]-1,3,8-triaza-spiro[4.5]dec-1-en-4-one]
124 | Cc1cc(N2CCOCC2=O)cc(C)c1CCS(=O)(=O)N1CCC2(CC1)N=C(C1CCC(CCC(F)(F)F)CC1)NC2=O (stereo not drawn) [Compound 764, 8-{2-[2,6-dimethyl-4-(3-oxo-morpholin-4-yl)-phenyl]-ethanesulfonyl}-2-[4-(3,3,3-trifluoro-propyl)-cyclohexyl]-1,3,8-triaza-spiro[4.5]dec-1-en-4-one]
101 | Cc1cc(N2CCOCC2=O)cc(C)c1CCS(=O)(=O)N1CCC2(CC1)N=C(C1CCC(C)CC1)NC2=O (stereo not drawn) [Compound 765, 8-{2-[2,6-dimethyl-4-(3-oxo-morpholin-4-yl)-phenyl]-ethanesulfonyl}-2-(4-methyl-cyclohexyl)-1,3,8-triaza-spiro[4.5]dec-1-en-4-one]
88 | CC(=O)N(CCOCCF)c1cc(C)c(CCS(=O)(=O)N2CCC3(CC2)N=C(C2CCC(CCC(F)(F)F)CC2)NC3=O)c(C)c1 (stereo not drawn) [Compound 766, N-[3,5-dimethyl-4-(2-{4-oxo-2-[4-(3,3,3-trifluoro-propyl)-cyclohexyl]-1,3,8-triaza-spiro[4.5]dec-1-ene-8-sulfonyl}-ethyl)-phenyl]-N-[2-(2-fluoro-ethoxy)-ethyl]-acetamide]
83 | Cc1cc(N2C(=O)NC(C)C2=O)cc(C)c1CCS(=O)(=O)N1CCC2(CC1)N=C(C1CCC(C)CC1)NC2=O (stereo not drawn) [Compound 767, 3-(3,5-dimethyl-4-{2-[2-(4-methyl-cyclohexyl)-4-oxo-1,3,8-triaza-spiro[4.5]dec-1-ene-8-sulfonyl]-ethyl}-phenyl)-5-methyl-imidazolidine-2,4-dione]
79 | Cc1cc(C(=O)O)cc(C)c1CCS(=O)(=O)N1CCC2(CC1)N=C(C1CCC(CCC(F)(F)F)CC1)NC2=O (stereo not drawn) [Compound 768, 3,5-dimethyl-4-(2-{4-oxo-2-[4-(3,3,3-trifluoro-propyl)-cyclohexyl]-1,3,8-triaza-spiro[4.5]dec-1-ene-8-sulfonyl}-ethyl)-benzoic acid]
55 | CC(=O)NNC(=O)c1cc(C)c(CCS(=O)(=O)N2CCC3(CC2)N=C(C2CCC(CCC(F)(F)F)CC2)NC3=O)c(C)c1 (stereo not drawn) [Compound 769, 3,5-dimethyl-4-(2-{4-oxo-2-[4-(3,3,3-trifluoro-propyl)-cyclohexyl]-1,3,8-triaza-spiro[4.5]dec-1-ene-8-sulfonyl}-ethyl)-benzoic acid N′-acetyl-hydrazide]
105 | Cc1cc(CO)cc(C)c1CCS(=O)(=O)N1CCC2(CC1)N=C(C1CCC(CCC(F)(F)F)CC1)NC2=O (stereo not drawn) [Compound 770, 8-[2-(4-hydroxymethyl-2,6-dimethyl-phenyl)-ethanesulfonyl]-2-[4-(3,3,3-trifluoro-propyl)-cyclohexyl]-1,3,8-triaza-spiro[4.5]dec-1-en-4-one]
80 | Cc1cc(N2CCCCC2=O)cc(C)c1CCS(=O)(=O)N1CCC2(CC1)N=C(C1CCC(C)CC1)NC2=O (stereo not drawn) [Compound 771, 8-{2-[2,6-dimethyl-4-(2-oxo-piperidin-1-yl)-phenyl]-ethanesulfonyl}-2-(4-methyl-cyclohexyl)-1,3,8-triaza-spiro[4.5]dec-1-en-4-one]
69 | CC(=O)NCc1cc(C)c(CCS(=O)(=O)N2CCC3(CC2)N=C(C2CCC(CCC(F)(F)F)CC2)NC3=O)c(C)c1 (stereo not drawn) [Compound 772, N-[3,5-dimethyl-4-(2-{4-oxo-2-[4-(3,3,3-trifluoro-propyl)-cyclohexyl]-1,3,8-triaza-spiro[4.5]dec-1-ene-8-sulfonyl}-ethyl)-benzyl]-acetamide]
